Measurements reported in ChEMBL document CHEMBL2440009, “Discovery of GSK2656157: An Optimized PERK Inhibitor Selected for Preclinical Development” (ACS Med Chem Lett, 2013).

How the values were obtained:
[1] = Blood clearance in Sprague-Dawley rat at 2.2 mg/kg, iv by LC-MS/MS analysis; assay type: ADME, organism-based; set-up: dose 2.2 mg/kg, route intravenous; details: whole blood
[2] = target: T1, Eukaryotic translation initiation factor 2-alpha kinase 3 (Homo sapiens, UniProt Q9NZJ5); assay: Inhibition of thapsigargin-induced autophosphorylation of PERK in human A549 cells preincubated for 1 hr followed by thapsigargin-induction measured after 1 hr by Western blotting analysis; assay type: cell-based
T1 sequence (Q9NZJ5 whole entry): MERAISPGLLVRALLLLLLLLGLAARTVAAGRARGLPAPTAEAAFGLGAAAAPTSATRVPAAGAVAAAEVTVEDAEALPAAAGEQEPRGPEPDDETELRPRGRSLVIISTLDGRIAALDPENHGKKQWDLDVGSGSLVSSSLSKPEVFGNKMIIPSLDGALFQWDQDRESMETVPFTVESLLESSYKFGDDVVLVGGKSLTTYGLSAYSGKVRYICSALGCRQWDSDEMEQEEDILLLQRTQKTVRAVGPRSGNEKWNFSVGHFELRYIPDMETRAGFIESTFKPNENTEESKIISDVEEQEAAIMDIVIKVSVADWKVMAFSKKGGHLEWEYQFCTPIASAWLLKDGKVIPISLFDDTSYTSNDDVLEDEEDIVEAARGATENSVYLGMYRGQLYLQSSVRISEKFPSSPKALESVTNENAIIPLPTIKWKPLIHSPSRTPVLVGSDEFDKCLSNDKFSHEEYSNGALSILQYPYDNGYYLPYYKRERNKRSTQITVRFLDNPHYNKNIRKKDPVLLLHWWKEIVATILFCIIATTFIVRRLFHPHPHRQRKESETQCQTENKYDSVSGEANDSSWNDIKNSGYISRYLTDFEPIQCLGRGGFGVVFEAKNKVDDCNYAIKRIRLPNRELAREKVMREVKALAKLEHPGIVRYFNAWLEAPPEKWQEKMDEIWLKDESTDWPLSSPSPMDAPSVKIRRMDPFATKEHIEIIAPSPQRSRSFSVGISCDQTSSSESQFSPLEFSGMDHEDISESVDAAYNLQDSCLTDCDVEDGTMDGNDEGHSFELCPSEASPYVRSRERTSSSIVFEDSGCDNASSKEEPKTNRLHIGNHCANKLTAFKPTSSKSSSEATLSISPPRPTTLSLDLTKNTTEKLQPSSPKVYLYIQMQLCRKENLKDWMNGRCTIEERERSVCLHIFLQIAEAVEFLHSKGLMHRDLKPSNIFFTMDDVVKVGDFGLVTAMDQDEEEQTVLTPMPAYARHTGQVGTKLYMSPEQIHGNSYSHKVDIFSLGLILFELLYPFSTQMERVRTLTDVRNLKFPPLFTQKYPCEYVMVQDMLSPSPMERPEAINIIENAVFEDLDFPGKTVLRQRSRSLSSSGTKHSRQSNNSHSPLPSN

[3] = target: T1, Eukaryotic translation initiation factor 2-alpha kinase 3; assay: Inhibition of GST-tagged PERK cytoplasmic domain (536 to 1116) (unknown origin) assessed as biotinylated His6-tagged EIF2alpha phosphorylation preincubated for 30 mins followed by ATP and eIF2alpha addition measured after 1 hr by HTRF assay
[4] = target: Interferon-induced, double-stranded RNA-activated protein kinase (Homo sapiens, UniProt P19525); assay: Inhibition of PKR (unknown origin) assessed as EIF2AK2 phosphorylation
[5] = target: Eukaryotic translation initiation factor 2-alpha kinase 1 (Homo sapiens, UniProt Q9BQI3); assay: Inhibition of HRI (unknown origin) assessed as EIF2AK1 phosphorylation
[6] = target: T2, Cytochrome P450 3A4 (Homo sapiens, UniProt P08684); assay: Inhibition of CYP3A4 in human liver microsomes using nifedipine as substrate after 5 to 60 mins by LC-MS/MS analysis; assay type: ADME, Microsome
[7] = target: T3, Cytochrome P450 2C8 (Homo sapiens, UniProt P10632); assay: Inhibition of CYP2C8 in human liver microsomes using paclitaxel as substrate after 5 to 60 mins by LC-MS/MS analysis; assay type: ADME, Microsome
T3 sequence (P10632 whole entry): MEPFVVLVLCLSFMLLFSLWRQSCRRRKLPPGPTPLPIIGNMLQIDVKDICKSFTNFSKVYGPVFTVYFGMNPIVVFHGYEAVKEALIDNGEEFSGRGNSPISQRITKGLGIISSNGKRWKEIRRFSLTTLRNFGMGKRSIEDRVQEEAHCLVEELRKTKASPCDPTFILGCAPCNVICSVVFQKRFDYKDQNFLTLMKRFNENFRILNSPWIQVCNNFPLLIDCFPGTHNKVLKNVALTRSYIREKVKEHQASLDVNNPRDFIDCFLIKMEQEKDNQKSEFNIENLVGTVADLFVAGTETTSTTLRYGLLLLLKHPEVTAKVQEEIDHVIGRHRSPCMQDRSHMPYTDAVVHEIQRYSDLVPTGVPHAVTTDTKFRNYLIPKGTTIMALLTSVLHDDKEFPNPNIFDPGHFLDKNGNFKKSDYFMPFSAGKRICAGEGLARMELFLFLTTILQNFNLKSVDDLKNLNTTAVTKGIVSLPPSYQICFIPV

[8] = target: T2, Cytochrome P450 3A4; assay: Inhibition of CYP3A4 in human liver microsomes using midazolam as substrate after 5 to 60 mins by LC-MS/MS analysis; assay type: ADME, Microsome
[9] = target: Cytochrome P450 2D6 (Homo sapiens, UniProt P10635); assay: Inhibition of CYP2D6 in human liver microsomes using bufuralol as substrate after 5 to 60 mins by LC-MS/MS analysis; assay type: ADME, Microsome
[10] = target: Cytochrome P450 2C19 (Homo sapiens, UniProt P33261); assay: Inhibition of CYP2C19 in human liver microsomes using mephenytoin as substrate after 5 to 60 mins by LC-MS/MS analysis; assay type: ADME, Microsome
[11] = target: Cytochrome P450 2C9 (Homo sapiens, UniProt P11712); assay: Inhibition of CYP2C9 in human liver microsomes using diclofenac as substrate after 5 to 60 mins by LC-MS/MS analysis; assay type: ADME, Microsome
[12] = target: T4, Cytochrome P450 1A2 (Homo sapiens, UniProt P05177); assay: Inhibition of CYP1A2 in human liver microsomes using phenacetin as substrate after 5 to 60 mins by LC-MS/MS analysis; assay type: ADME, Microsome
T4 sequence (P05177 whole entry): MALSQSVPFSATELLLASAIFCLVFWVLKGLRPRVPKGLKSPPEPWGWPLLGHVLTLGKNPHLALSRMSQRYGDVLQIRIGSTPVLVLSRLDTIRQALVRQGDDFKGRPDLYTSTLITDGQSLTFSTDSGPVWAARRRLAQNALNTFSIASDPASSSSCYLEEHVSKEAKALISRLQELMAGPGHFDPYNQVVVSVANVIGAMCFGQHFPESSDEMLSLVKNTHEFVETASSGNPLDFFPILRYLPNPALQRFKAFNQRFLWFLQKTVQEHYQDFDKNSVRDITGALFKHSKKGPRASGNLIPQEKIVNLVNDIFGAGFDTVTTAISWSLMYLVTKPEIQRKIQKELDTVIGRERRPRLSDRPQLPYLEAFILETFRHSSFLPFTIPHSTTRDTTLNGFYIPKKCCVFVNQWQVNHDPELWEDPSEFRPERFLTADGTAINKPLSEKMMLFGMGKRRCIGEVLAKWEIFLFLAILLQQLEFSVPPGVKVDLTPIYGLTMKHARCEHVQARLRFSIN

T2 sequence (P08684 whole entry): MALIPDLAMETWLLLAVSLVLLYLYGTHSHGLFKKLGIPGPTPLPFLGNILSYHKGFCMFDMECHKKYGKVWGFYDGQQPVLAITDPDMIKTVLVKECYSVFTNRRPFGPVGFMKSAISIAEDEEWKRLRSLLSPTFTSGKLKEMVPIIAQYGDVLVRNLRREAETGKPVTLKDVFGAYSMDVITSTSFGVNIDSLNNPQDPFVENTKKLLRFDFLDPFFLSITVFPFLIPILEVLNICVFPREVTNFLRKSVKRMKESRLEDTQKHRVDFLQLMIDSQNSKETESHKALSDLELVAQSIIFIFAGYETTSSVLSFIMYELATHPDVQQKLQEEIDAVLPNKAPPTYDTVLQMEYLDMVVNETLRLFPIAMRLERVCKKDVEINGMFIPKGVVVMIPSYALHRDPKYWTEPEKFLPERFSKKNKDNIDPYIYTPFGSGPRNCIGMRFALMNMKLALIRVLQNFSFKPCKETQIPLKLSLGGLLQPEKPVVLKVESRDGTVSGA
Eukaryotic translation initiation factor 2-alpha kinase 1, sequence (Q9BQI3 whole entry): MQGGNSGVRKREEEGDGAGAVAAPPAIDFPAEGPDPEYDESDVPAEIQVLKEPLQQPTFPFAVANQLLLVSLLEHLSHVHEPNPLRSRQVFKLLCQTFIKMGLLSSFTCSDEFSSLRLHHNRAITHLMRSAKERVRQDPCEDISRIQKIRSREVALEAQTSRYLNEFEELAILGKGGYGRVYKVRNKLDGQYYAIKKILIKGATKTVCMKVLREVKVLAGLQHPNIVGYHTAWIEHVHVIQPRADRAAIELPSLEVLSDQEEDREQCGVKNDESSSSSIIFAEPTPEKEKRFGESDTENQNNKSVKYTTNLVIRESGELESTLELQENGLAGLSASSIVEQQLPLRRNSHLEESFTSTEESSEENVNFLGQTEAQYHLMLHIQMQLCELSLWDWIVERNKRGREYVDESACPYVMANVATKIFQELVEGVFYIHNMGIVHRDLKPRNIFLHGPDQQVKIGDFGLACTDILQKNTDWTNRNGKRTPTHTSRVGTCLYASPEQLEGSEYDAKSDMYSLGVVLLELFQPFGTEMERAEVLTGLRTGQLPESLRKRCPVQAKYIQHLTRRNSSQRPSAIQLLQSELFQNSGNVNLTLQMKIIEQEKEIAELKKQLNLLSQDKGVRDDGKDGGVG
Interferon-induced, double-stranded RNA-activated protein kinase, sequence (P19525 whole entry): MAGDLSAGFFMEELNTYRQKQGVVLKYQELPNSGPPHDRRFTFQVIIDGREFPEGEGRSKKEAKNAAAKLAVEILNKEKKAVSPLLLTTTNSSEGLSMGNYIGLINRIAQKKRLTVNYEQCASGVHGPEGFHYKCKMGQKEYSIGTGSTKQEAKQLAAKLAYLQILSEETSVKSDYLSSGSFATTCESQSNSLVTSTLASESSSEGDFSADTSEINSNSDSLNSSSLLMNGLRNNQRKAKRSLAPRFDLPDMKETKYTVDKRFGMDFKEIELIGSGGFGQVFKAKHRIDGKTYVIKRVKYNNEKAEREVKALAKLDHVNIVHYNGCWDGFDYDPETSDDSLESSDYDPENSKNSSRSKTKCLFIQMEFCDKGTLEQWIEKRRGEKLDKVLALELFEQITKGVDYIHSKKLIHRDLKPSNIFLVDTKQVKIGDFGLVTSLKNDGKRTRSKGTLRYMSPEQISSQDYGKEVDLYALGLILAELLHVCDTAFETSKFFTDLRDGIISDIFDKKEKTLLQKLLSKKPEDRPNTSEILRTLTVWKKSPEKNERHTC
Cytochrome P450 2C19, sequence (P33261 whole entry): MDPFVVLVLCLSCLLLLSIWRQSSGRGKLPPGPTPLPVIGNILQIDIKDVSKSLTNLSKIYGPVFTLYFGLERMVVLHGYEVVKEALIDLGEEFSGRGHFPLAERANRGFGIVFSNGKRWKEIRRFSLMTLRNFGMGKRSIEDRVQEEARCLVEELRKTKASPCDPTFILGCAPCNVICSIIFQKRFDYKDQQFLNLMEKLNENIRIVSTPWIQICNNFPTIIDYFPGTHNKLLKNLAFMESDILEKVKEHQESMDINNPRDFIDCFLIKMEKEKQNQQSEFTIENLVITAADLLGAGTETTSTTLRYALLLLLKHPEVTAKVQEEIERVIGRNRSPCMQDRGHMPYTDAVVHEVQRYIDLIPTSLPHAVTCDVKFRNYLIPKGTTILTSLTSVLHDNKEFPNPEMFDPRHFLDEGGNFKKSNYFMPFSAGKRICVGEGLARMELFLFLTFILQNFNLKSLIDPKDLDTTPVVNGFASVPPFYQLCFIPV
Cytochrome P450 2D6, sequence (P10635 whole entry): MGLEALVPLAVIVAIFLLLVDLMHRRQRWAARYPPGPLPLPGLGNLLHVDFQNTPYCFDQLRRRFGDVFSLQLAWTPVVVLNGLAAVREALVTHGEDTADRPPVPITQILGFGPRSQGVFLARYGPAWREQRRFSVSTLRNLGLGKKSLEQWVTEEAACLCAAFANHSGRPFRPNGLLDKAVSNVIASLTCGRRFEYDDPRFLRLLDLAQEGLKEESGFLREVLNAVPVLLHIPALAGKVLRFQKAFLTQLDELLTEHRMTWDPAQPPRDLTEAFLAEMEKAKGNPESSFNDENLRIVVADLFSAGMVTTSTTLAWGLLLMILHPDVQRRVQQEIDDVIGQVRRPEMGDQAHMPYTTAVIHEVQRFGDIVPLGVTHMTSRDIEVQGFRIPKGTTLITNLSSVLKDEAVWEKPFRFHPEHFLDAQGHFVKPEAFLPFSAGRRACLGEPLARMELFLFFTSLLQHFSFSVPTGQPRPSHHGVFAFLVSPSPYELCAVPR
Cytochrome P450 2C9, sequence (P11712 whole entry): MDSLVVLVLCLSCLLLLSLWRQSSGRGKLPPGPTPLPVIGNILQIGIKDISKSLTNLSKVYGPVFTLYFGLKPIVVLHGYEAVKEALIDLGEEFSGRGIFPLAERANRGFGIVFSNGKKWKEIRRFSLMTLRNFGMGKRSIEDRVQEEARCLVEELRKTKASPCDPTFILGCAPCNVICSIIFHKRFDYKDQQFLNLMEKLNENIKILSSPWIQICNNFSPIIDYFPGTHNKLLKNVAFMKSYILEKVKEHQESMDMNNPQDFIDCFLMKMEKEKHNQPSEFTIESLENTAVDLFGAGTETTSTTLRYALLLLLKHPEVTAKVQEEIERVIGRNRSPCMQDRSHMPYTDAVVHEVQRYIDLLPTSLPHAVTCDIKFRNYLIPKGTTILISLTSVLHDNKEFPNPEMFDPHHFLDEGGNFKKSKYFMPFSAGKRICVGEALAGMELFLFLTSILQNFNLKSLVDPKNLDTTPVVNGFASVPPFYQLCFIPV

Row | clearance [1] [mL/min/kg] | IC50 [2] [nM] | IC50 [3] [nM] | also measured | SMILES
1 | 12.8 | 30 | 0.5 | – | Cn1cc(-c2ccc3c(c2)CCN3C(=O)Cc2cccc(C(F)(F)F)n2)c2c(N)ncnc21
2 | 10.5 | 100 | 2.5 | – | Cc1cccc(CC(=O)N2CCc3cc(-c4cn(C)c5ncnc(N)c45)ccc32)n1
3 | – | – | 16.6 | – | Cc1ccnn1CC(=O)N1CCc2cc(-c3cn(C)c4ncnc(N)c34)ccc21
4 | – | – | 63.8 | – | Cn1cc(-c2ccc3c(c2)CCN3C(=O)Cc2ccncc2)c2c(N)ncnc21
5 | – | – | 23.4 | – | Cn1cc(-c2ccc3c(c2)CCN3C(=O)Cc2cccnc2)c2c(N)ncnc21
6 | 1.9 | 30 | 2.7 | IC50 [4]: 99 nM; IC50 [5]: 61 nM; IC50 [6]: 20500 nM; IC50 [7]: > 25000 nM; IC50 [8]: > 25000 nM; IC50 [9]: > 25000 nM; IC50 [10]: > 25000 nM; IC50 [11]: > 25000 nM; IC50 [12]: > 25000 nM | Cc1cc(C)n(CC(=O)N2CCc3c2ccc(-c2cn(C)c4ncnc(N)c24)c3F)n1
